Assays:
Conditions in all cases: 48 h
CU-ACC1 [1] = test: AC50 viability; higher = less potent
How it was run: (§1)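 After 48 h of treatment with 23 nL of each library compound at 11 concentrations, three adrenocortical carcinoma cell lines in 1,536-well plates (500–1,000 cells/well, 5 µL medium) were given CellTiter-Glo for 15 minutes at room temperature. Luminescence was then read and normalised per plate to vehicle and empty-well controls. AC50 and area under the curve were drawn from fitted concentration-response curves of inhibitory or non-responding classes only.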

CU-ACC2 = test: area under concentration-response curve (viability) (AUC (a.u.)); higher = less active
How it was run: as §1

CU-ACC1 [2] = test: as above
How it was run: as §1

NCI-H295R = test: as above
How it was run: as §1

Compound | AC50 viability (CU-ACC1 [1]) | area under concentration-response curve (CU-ACC2) | area under concentration-response curve (CU-ACC1 [2]) | area under concentration-response curve (NCI-H295R)
NC(=O)c1noc([C@H](CCCC2CCCCC2)CC(=O)NO)n1 | 41.7 µM | 531 | 446 | 
CCOC(=O)c1c(CSc2ccccc2)n(C)c2cc(Br)c(O)c(CN(C)C)c12 | 37.2 µM | 600 | 476 | 
COC1=CC=CC2=C1C(=C(/C(=O)N(C)C3=CC=C(C=C3)C(F)(F)F)C(=O)N2C)/O | 0.0525 µM | 187 | 279 | 
Clc1ccccc1C(c1ccccc1)(c1ccccc1)n1ccnc1 | 18.6 µM | 518 | 509 | 
FC(F)(F)c1ccc(Nc2nc3cc(Oc4ccnc(-c5ncc(C(F)(F)F)[nH]5)c4)ccc3[nH]2)cc1 | 4.68 µM | 603 | 479 | 
CC1Oc2cc(cnc2N)-c2c(nn(C)c2C#N)CN(C)C(=O)c2ccc(F)cc21 (stereo not given) | 6.61 µM | 485 | 463 | 
CN(C)Cc1ccc(-c2nc3cccc4c3n2CCNC4=O)cc1 | 33.2 µM | 216 | 294 | 
COC[C@H]1OC(=O)C2=COC3=C2[C@@]1(C)\C4=C(C5CCC(=O)[C@@]5(C)C[C@H]4OC(C)=O)/C3=O (stereo not given in full) | 16.6 µM | 549 | 446 | 
CN1CCc2c(n(Cc3ccc(C(=O)NO)cc3)c3ccccc23)C1 | 29.5 µM | 482 | 426 | 
CN1CCC(CC1)=C2C3=C(C=CC=C3)\C=C/C4=C2C=CC=C4 | 8.33 µM | 480 | 373 | 
C[C@@H]1CC2C3C[C@H](F)C\4=C\C(=O)\C=C/[C@]4(C)[C@@]3(F)[C@@H](O)C[C@]2(C)[C@@]1(OC(=O)C5=CC=CO5)C(=O)SCF (stereo not given in full) | 41.7 µM | 592 | 468 | 
CC(=O)N(O)CCCCCNC(=O)CCC(=O)N(O)CCCCCNC(=O)CCC(=O)N(O)CCCCCN | 11.8 µM |  | 379 | 432
CO[C@H]1C[C@@H]2CC[C@@H](C)[C@@](O)(O2)C(=O)C(=O)N2CCCC[C@H]2C(=O)O[C@H]([C@H](C)C[C@@H]2CC[C@@H](OCCO)[C@H](OC)C2)CC(=O)[C@H](C)/C=C(/C)[C@@H](O)[C@@H](OC)C(=O)[C@H](C)C[C@H](C)\C=C/C=C\C=C/1C | 18.6 µM | 439 | 421 | 
OC1=CC2=C(C=C1)C(=O)\C(=C(O2)\C3=CC(=C(O)C=C3)O)O | 14.8 µM | 548 | 451 | 
CC(C)c1c(C(=O)Nc2ccccc2)c(-c2ccccc2)c(-c2ccc(F)cc2)n1CC[C@@H](O)C[C@@H](O)CC(=O)O | 6.45 µM |  | 544 | 635
N[S+](=O)([O-])c1ccc([S+](=O)([O-])Nc2cccc3c(Cl)c[nH]c23)cc1 | 8.33 µM | 527 | 404 | 
Clc1ccc(Cn2c(CN3CCCC3)nc3ccccc32)cc1 | 29.5 µM | 576 | 447 | 
O=C(NO)C1(C[S+](=O)([O-])c2ccc(Oc3ccc(Cl)cc3)cc2)CCOCC1 | 16.6 µM | 553 | 450 | 
O=C(Nc1ccc(OC(F)(F)Cl)cc1)c1cnc(N2CC[C@@H](O)C2)c(-c2ccn[nH]2)c1 | 33.2 µM | 574 | 442 | 
O=C(Nc1cccc(Br)c1)c1cccc([S+](=O)([O-])N2CCCCCC2)c1 | 29.5 µM | 608 | 486 | 
CCn1c(-c2nonc2N)nc2cncc(CNC3CCNCC3)c21 | 14.8 µM |  | 477 | 526
Clc1ccc(C(Cn2ccnc2)OCc2ccsc2Cl)c(Cl)c1 (stereo not given) | 16.6 µM | 584 | 476 | 
N[C@@H]1C[C@H]1c1ccccc1 | 0.00186 µM |  | 341 | 353
O=C(NO)c1cnc(NC2(c3cccc(F)c3)CCCCC2)nc1 | 20.9 µM |  | 474 | 538
O=C1N\N=C(\CC2=CC=CC(=C2)C(=O)N3CCN(CC3)C4=NC=CC=C4C#N)C5=CC=CC=C15 | 18.6 µM |  | 450 | 548
Cc1nc2cc(C(=O)N3CCC4(CC3)CC(=O)c3c(cnn3C(C)C)C4)ccc2[nH]1 | 26.3 µM |  | 467 | 568
c1nc2c(NC3CCCCC3)nc(Nc3ccc(N4CCOCC4)cc3)nc2[nH]1 | 0.00118 µM |  | 283 | 274
O=C(O)[C@H](O)[C@@H](O)[C@H](O[C@@H]1O[C@H](CO)[C@H](O)[C@H](O)[C@H]1O)[C@H](O)CO | 0.00118 µM |  | 342 | 307
C[C@H](NC(=O)[C@@H](O)c1cc(F)cc(F)c1)C(=O)N[C@@H]1C(=O)N(C)c2ccccc2-c2ccccc21 | 26.3 µM |  | 381 | 424
N#Cc1ccc(COC[C@H]2O[C@@H](n3c(NCc4ccc(Cl)c(Cl)c4)nc4c(N)ncnc43)[C@H](O)[C@@H]2O)cc1 | 20.9 µM |  | 464 | 494

Reference: the supplement of paper PMC10949913
